Kd and phosphoinositide binding data for 1 compound are collected here from patent publication US20040106148A1, “Polypeptides” (priority 2000, published 2004).

Experiment [1] concerns the target T1, human TAPP1 C-terminal PH domain (CT-PH TAPP1, residues 95 to 404), GST fusion (Homo sapiens, UniProt Q9HB21, T320A).
T1 construct: made in house; host or cells: human embryonic kidney 293 cells (pEBG-2T)
As to the kind of experiment: Surface plasmon resonance (BIACore), GST fusion binding to phosphoinositide in supported lipid monolayer. To be noted: supported phosphatidylcholine monolayers, 1:1 binding model, read-out: Apparent Kd. From the text: Cloning of PH domains and preparation of expression constructs. All the human and mouse EST's were obtained from the I.M.A.G.E. Consortium and sequenced. The plant EST (accession number T04439) encoding a full length clone of AtPH1 was obtained from the Arabidopsis Biological Research. Centre (Ohio University). The sequence of each EST was verified and the full length PH domain of each EST was amplified by PCR using the Hi-fidelity PCR system with primers designed to incorporate a Kozak site, an initiating ATG codon followed by a myc epitope tag and a stop codon after the PH domain. […]
Kinetic analyses of the interactions between the GST PH domain fusions and the polyphosphoinositides were made using surface plasmon resonance based procedures as described previously, with the following modifications. […] Data were analysed using the bimolecular interaction model and the global fitting feature of the BIAevaluation 3 software for several sensorgrams at different protein concentrations. […] The relative binding affinities of each protein relative to the binding of full length GST-TAPP1 to PtdIns(3,4)P2 were also calculated.
We studied the specificity and affinity of interaction of the PH domains for phosphoinositide lipids using either a “protein-lipid overlay” assay (FIG. 2) or the more quantitative surface plasmon resonance based approach (Table 2). […]

Experiment [2] has as its target human TAPP1 C-terminal PH domain (residues 95 to 404), GST fusion (Homo sapiens, UniProt Q9HB21). In words: Protein-lipid overlay. Format: binding. To be noted: protein-lipid overlay (FIG. 2). Here is the method: (§1) FIG. 2. Phosphoinositide binding properties of the novel PH domains. The ability of the indicated GST fusion proteins to bind a variety of phosphoinositides was analysed using a protein-lipid overlay. Serial dilutions of the indicated phosphoinositides (100 pmol, 50 pmol, 25 pmol, 12.5 pmol, 6.3 pmol, 3.1 pmol and 1.6 pmol) were spotted onto a nitrocellulose membranes which were then incubated with the purified GST fusion proteins. The membranes were washed and the GST-fusion proteins bound to the membrane by virtue of their interaction with lipid were detected using a GST antibody. A representative of at least 3 separate experiments carried out is shown.
(§2) FIG. 4. Comparison of the phosphoinositide binding properties of the N-terminal and C-terminal PH domains of TAPP1 and TAPP2. The ability of wild type and mutant forms of full length (FL) and isolated N-terminal (NT) and C-terminal (CT) PH domains of TAPP1 and TAPP2 GST-fusion proteins to interact with phosphoinositides were analysed using a protein-lipid overlay. Serial dilutions of the indicated phosphoinositides (100 pmol, 50 pmol, 25 pmol, 12.5 pmol, 6.3 pmol, 3.1 pmol and 1.6 pmol) were spotted onto a nitrocellulose membrane which was then incubated with the indicated purified GST fusion proteins. The membranes were washed and the GST-fusion proteins bound to the membrane by virtue of their interactions with lipid were detected using a GST antibody. A representative experiment of three is shown. The isolated N-terminal PH domain of human TAPP1 comprises residues 1 to 147, the isolated C-terminal PH domain of human TAPP1 comprises residues 95 to 404, the isolated N-terminal PH domain of mouse TAPP2 comprises residues 1 to 131 and the isolated C-terminal PH of mouse TAPP2 comprises residues 174 to 425.
(§3) Protein-Lipid overlay. To assess the phosphoinositide binding properties of each PH domain, a protein-lipid overlay assay was performed using the GST fusion proteins as described previously. […] The membrane was blocked in 3% (by mass) fatty acid-free BSA in TBST (50 mM Tris/HCl pH 7.5, 150 mM NaCl and 0.1% Tween-20 (by vol) for lh. The membrane was then incubated overnight at 4° C. with gentle agitation in the same solution containing 0.2 μg/ml of the indicated GST fusion protein. The membranes were washed 6 times over 30 min in TBST and then incubated for 1 h with 1/1000 dilution of anti-GST monoclonal antibody (Sigma). The membranes were washed as before, then incubated for 1 h with 1/5000 dilution of anti-mouse-HRP conjugate (Pierce). Finally, the membranes were washed 12 times over 1 h in TBST and the GST-fusion protein bound to the membrane by virtue of its interaction with phospholipid was detected by enhanced chemiluminescence.

Experiment [3] addresses T2, mouse TAPP2 C-terminal PH domain (residues 174 to 425), GST fusion (Mus musculus, UniProt Q9ERS5).
T2 construct: made in house; host or cells: human embryonic kidney 293 cells (pEBG-2T)
As to the kind of experiment: Protein-lipid overlay. Format: binding. The settings on record: protein-lipid overlay (FIG. 2). Here is the method: as §1, §2, §3

T2 sequence (Q9ERS5 174-425): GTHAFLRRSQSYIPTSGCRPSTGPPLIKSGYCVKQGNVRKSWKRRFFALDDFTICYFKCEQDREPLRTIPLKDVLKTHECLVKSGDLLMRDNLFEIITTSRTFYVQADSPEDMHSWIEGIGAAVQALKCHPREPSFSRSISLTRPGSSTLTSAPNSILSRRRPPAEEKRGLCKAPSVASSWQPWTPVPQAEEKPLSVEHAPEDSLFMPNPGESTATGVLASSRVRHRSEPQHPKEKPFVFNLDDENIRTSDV
T1 sequence (Q9HB21 95-404 T320A): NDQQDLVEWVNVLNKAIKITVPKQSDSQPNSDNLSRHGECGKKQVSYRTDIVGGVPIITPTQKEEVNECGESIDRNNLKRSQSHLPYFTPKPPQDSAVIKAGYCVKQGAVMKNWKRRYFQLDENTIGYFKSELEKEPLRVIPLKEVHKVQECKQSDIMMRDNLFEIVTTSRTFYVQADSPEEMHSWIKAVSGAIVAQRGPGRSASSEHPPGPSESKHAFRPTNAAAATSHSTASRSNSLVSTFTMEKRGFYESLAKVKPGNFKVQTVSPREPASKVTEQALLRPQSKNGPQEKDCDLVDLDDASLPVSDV
Chain of human TAPP1 C-terminal PH domain (residues 95 to 404), GST fusion (Q9HB21 95-404): as the sequence (Q9HB21 95-404 T320A) above, with A226T counted along it

`CCCCCCCCCCCCCCCC(=O)OC[C@H](COP(=O)(O)O[C@H]1[C@H](O)[C@@H](O)[C@H](OP(=O)(O)O)[C@@H](OP(=O)(O)O)[C@H]1O)OC(=O)CCCCCCCCCCCCCCC` [PtdIns(3,4)P2]: the Kd in experiment [1] came to 0.027 µM. Moreover, the phosphoinositide binding entry in experiment [2] and in experiment [3] was “interacted” each time.
